ChEMBL document CHEMBL1201862, “PubChem BioAssay data set” (2004)
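Grown in 96-well plates, cells were treated for 48 hours with each compound at five concentrations. Insufficient inhibition: endpoint recorded as highest concentration tested. Abbreviation: GI50, concentration required for 50% inhibition of growth.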 The source made the active and inactive calls. No stated cut-off is given here; in the data, active = GI50 up to about 1.1 µM and inactive = higher.

Assays:
Test in all cases: growth of human tumour cells (NCI), 48 h
SNB-75 = system: SNB-75
T47D = system: T47D
SF-295 = system: SF-295
SN12C = system: SN12C
NCI-H226 = system: NCI-H226
EKVX = system: EKVX
UACC-257 = system: UACC-257
M14 = system: M14
COLO 205 = system: COLO 205
SF-268 = system: SF-268
UO-31 = system: UO-31
LOX IMVI = system: LOX IMVI
A549 = system: A549
K562 = system: K562
SK-MEL-28 = system: SK-MEL-28
SNB-19 = system: SNB-19
Malme-3M = system: Malme-3M
RXF 393 = system: RXF 393
MDA-MB-435 = system: MDA-MB-435

Measured: GI50

O=C(O)C(/C=C/c1ccccc1)c1ccccc1 (stereo not drawn)
inactive: SNB-75 > 100 µM | T47D > 100 µM | SF-295 > 100 µM | SN12C > 100 µM | NCI-H226 > 100 µM | EKVX > 100 µM | UACC-257 > 100 µM | M14 > 100 µM | COLO 205 > 100 µM | SF-268 > 100 µM | UO-31 > 100 µM | LOX IMVI > 100 µM | A549 > 100 µM | K562 84.3 µM | SK-MEL-28 > 100 µM | SNB-19 > 100 µM | Malme-3M > 100 µM | RXF 393 > 100 µM

CC(O[Si](c1ccccc1)(c1ccccc1)C(C)(C)C)[C@H](NC(=O)OC(C)(C)C)C(=O)O (stereo partly drawn)
inactive: SNB-75 43.7 µM | T47D 39.8 µM | SF-295 19.8 µM | EKVX 33.5 µM | UACC-257 36.1 µM | M14 38.3 µM | COLO 205 22.7 µM | SF-268 57.3 µM | UO-31 33.9 µM | A549 30.4 µM | K562 46.6 µM | SK-MEL-28 50 µM | SNB-19 36.1 µM | Malme-3M 50 µM | RXF 393 35 µM

Cc1nc(Cl)c2sc(=S)n(-c3ccc(F)cc3)c2n1
inactive: SNB-75 1.44 µM | SF-295 10.9 µM | SN12C 5.52 µM | NCI-H226 17.4 µM | EKVX 13.2 µM | UACC-257 2.54 µM | M14 2.11 µM | MDA-MB-435 2.59 µM | COLO 205 4.47 µM | SF-268 1.81 µM | UO-31 1.69 µM | LOX IMVI 1.77 µM | A549 12.8 µM | K562 7.6 µM | SK-MEL-28 2.33 µM | SNB-19 1.88 µM | Malme-3M 10.6 µM | RXF 393 7.85 µM

Cc1ccc(C)n1-c1ccccc1C1C=CN(C(=O)OC(C)(C)C)C=C1
inactive: SNB-75 13.5 µM | SF-295 30 µM | SN12C 33.6 µM | NCI-H226 14.1 µM | EKVX 16.4 µM | UACC-257 34.7 µM | M14 28.8 µM | MDA-MB-435 36.2 µM | COLO 205 17.2 µM | SF-268 33.6 µM | UO-31 33.1 µM | LOX IMVI 20.5 µM | A549 31.1 µM | K562 32.3 µM | SK-MEL-28 44.9 µM | SNB-19 47.6 µM | Malme-3M 15.7 µM | RXF 393 19.6 µM

Cc1ccc(-c2c(C#N)c(S)n(NS(=O)(=O)c3ccc(C)cc3)c(=O)c2C#N)cc1
inactive: SNB-75 14.3 µM | SF-295 23.1 µM | SN12C 31.5 µM | NCI-H226 11.7 µM | EKVX 23.6 µM | UACC-257 40 µM | M14 31.3 µM | MDA-MB-435 22.3 µM | COLO 205 30 µM | UO-31 17.5 µM | LOX IMVI 27.2 µM | A549 39.2 µM | K562 35.8 µM | SK-MEL-28 22 µM | SNB-19 21.6 µM | Malme-3M 3.56 µM | RXF 393 23.5 µM

Cc1ccc(CC(Cc2ccccc2C)C(=O)O)c(C(=O)O)c1 (stereo not drawn)
inactive: SNB-75 > 100 µM | SF-295 > 100 µM | SN12C > 100 µM | NCI-H226 > 100 µM | EKVX > 100 µM | UACC-257 > 100 µM | M14 > 100 µM | MDA-MB-435 > 100 µM | COLO 205 > 100 µM | SF-268 > 100 µM | UO-31 > 100 µM | LOX IMVI > 100 µM | A549 > 100 µM | K562 > 100 µM | SK-MEL-28 > 100 µM | SNB-19 > 100 µM | Malme-3M > 100 µM | RXF 393 > 100 µM

CC12CC(=O)C3C(C(=O)C1)C32C (stereo not drawn)
inactive: SNB-75 45.3 µM | SF-295 > 100 µM | SN12C > 100 µM | NCI-H226 > 100 µM | EKVX > 100 µM | UACC-257 > 100 µM | M14 > 100 µM | MDA-MB-435 > 100 µM | COLO 205 > 100 µM | SF-268 > 100 µM | UO-31 > 100 µM | LOX IMVI > 100 µM | A549 > 100 µM | K562 > 100 µM | SK-MEL-28 > 100 µM | SNB-19 > 100 µM | Malme-3M 20.5 µM | RXF 393 > 100 µM

CON(C)C(=O)C(C)N(Cc1ccccc1)Cc1ccccc1 (stereo not drawn)
inactive: SNB-75 36.9 µM | SF-295 > 100 µM | SN12C > 10 µM | NCI-H226 64.6 µM | EKVX 65.8 µM | UACC-257 82 µM | M14 68.7 µM | MDA-MB-435 88.9 µM | SF-268 > 100 µM | UO-31 38.5 µM | A549 57 µM | K562 40.5 µM | SK-MEL-28 > 100 µM | SNB-19 > 100 µM | Malme-3M > 100 µM | RXF 393 > 100 µM
